What was measured:
[1] = biological target: intracellular GCN2 (phosphorylation of the GCN2 substrate eIF2α) (Homo sapiens, UniProt Q9P2K8); assay: GCN2 cellular inhibition assay (AlphaScreen SureFire P-eIF2α Ser51, borrelidin-treated U2OS cells); assay type: cell-based; details: biomarker assay, phosphorylated eIF2α Ser51 in borrelidin-treated U2OS cells
Procedure, shortened: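 Borrelidin at 10 μM is added to U2OS cells immediately after compound (4-fold dilution series, 40 μM top final) for 1 h at 37 °C. Phosphorylated eIF2α Ser51 in lysates is quantified by AlphaScreen and expressed as percent inhibition against borrelidin-stimulated controls.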

GCN2 kinase = GCN2 kinase (Homo sapiens, UniProt Q9P2K8); assay: GCN2 enzyme inhibition assay (Transcreener ADP2 fluorescence polarization); assay type: biochemical; details: 280 μM ATP
Sequence of GCN2 kinase (Q9P2K8 whole entry): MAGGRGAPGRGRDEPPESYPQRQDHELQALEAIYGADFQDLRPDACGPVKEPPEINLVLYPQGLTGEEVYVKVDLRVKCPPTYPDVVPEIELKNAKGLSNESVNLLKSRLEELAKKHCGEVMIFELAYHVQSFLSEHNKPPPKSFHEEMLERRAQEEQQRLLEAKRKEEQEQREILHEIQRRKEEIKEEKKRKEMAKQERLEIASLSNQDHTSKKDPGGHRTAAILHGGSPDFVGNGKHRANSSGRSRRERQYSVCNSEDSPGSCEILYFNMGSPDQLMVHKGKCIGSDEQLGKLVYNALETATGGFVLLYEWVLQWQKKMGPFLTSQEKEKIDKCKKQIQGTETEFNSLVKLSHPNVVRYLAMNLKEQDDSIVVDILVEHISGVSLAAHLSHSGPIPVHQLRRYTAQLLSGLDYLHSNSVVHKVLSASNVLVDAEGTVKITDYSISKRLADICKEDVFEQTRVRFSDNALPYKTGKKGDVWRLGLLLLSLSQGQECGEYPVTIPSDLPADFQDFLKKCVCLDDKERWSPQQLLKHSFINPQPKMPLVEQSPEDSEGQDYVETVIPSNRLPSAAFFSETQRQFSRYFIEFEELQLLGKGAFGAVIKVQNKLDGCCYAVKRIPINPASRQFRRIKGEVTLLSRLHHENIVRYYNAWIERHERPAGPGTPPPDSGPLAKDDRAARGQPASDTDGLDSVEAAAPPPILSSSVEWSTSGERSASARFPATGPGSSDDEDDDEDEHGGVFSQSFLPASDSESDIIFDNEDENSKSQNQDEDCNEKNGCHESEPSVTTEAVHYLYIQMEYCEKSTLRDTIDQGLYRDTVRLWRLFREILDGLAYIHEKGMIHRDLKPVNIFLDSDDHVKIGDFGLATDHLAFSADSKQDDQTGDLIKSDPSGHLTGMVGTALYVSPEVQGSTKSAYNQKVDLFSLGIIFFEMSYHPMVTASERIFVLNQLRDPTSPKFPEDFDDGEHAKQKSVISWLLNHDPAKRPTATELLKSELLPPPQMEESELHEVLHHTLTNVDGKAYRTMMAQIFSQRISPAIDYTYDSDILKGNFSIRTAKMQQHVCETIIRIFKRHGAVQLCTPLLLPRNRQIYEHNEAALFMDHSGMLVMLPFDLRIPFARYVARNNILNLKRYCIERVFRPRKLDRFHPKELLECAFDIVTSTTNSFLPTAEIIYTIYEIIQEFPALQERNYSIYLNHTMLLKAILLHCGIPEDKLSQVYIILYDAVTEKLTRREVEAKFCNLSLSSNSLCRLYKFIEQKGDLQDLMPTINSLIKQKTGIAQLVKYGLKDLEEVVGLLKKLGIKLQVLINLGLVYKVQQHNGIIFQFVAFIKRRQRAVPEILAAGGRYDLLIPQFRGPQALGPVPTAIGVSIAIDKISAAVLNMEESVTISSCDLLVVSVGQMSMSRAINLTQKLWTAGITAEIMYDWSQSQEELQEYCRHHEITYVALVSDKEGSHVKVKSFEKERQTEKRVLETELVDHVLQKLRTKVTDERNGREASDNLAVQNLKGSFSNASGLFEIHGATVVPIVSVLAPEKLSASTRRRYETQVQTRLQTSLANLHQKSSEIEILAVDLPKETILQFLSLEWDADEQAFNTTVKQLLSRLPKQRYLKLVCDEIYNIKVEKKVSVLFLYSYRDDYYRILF
Procedure, shortened: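 Run at 25 °C in 25 mM Tris-HCl pH 7.5, 50 mM NaCl, 10 mM MgCl2, 1 mM DTT with 4 nM GCN2, 280 μM ATP and 200 μM (RS)7 peptide; compound (0–8 μM final) preincubated 10 min, reaction 1 h. ADP read by antibody/tracer FP; IC50 and Ki(app) from tight-binding fit.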

[2] = compounds of Formula II, 4 nM GCN2 kinase
[3] = Enzyme activity for compounds of Formula IV, Ki(app), 25° C.

Sequence of intracellular GCN2 (phosphorylation of the GCN2 substrate eIF2α) (Q9P2K8 whole entry): as above

SMILES	IC50 ([1]; compounds of Formula II)	Ki (GCN2 kinase; [2])	IC50 ([1]; compounds of Formula IV)	Ki (GCN2 kinase; [3])	other results
NC(=O)C1CN(c2cc(-c3cnc4ccc(C(F)F)nn34)ccn2)CCO1 (stereo not shown) [II-135, 4-(4-(6-(Difluoromethyl)imidazo[1,2-b]pyridazin-3-yl)pyridin-2-yl)morpholine-2-carboxamide]	0.5 to 5 µM	10 to 1000 nM			
CC1C(CNS(C)(=O)=O)C(F)(F)CCN1c1cc(-c2cnc3ccc(C(F)F)nn23)ncn1 (single isomer, unassigned) [II-303, N-((1-(6-(6-(Difluoromethyl)imidazo[1,2-b]pyridazin-3-yl)pyrimidin-4-yl)-4,4-difluoro-2-methylpiperidin-3-yl)methyl)methanesulfonamide]	0.5 to 5 µM	10 to 1000 nM			
OCC1CN(c2cc(-c3cnc4ccc(C(F)(F)F)nn34)ncn2)CCO1 (stereo not shown) [II-518, (4-(6-(6-(Trifluoromethyl)imidazo[1,2-b]pyridazin-3-yl)pyrimidin-4-yl)morpholin-2-yl)methanol]	> 5 µM	10 to 1000 nM			
CS(=O)(=O)NCC1CN(c2cc(-c3cnc4ccc(C(F)F)nn34)ncn2)CCC1O (stereo not shown) [II-112, N-((1-(6-(6-(Difluoromethyl)imidazo[1,2-b]pyridazin-3-yl)pyrimidin-4-yl)-4-hydroxypiperidin-3-yl)methyl)methanesulfonamide]	0.5 to 5 µM	< 10 nM			
O=S(=O)(C1CCCN(c2ccnc(-c3cnc4cnc(C(F)F)cn34)n2)C1)N1CCOCC1 (stereo not shown) [IV-172, 4-((1-(2-(6-(Difluoromethyl)imidazo[1,2-a]pyrazin-3-yl)pyrimidin-4-yl)piperidin-3-yl)sulfonyl)morpholine]			> 5 µM	100 to 1000 nM	
C[C@H]1CN(c2ccnc(-c3cnc4cnc(C(F)(F)F)cn34)n2)C[C@@H](c2c[nH]cn2)N1 (racemic) [IV-379, Cis-3-(4-(3-(1H-Imidazol-4-yl)-5-methylpiperazin-1-yl)pyrimidin-2-yl)-6-(trifluoromethyl)imidazo[1,2-a]pyrazine]			0.5 to 5 µM	< 10 nM	
O=C1OC[C@@H]2CN(c3cc(-c4cnc5ccc(C(F)F)nn45)ncn3)CCN12 [II-47, (S)-7-(6-(6-(Difluoromethyl)imidazo[1,2-b]pyridazin-3-yl)pyrimidin-4-yl)hexahydro-3H-oxazolo[3,4-a]pyrazin-3-one]	0.5 to 5 µM	10 to 1000 nM			
CC(=O)N1CCCC(c2cc(-c3cnc4ccc(C(F)F)nn34)ncn2)C1 (stereo not shown) [II-222, 1-(3-(6-(6-(Difluoromethyl)imidazo[12-b]pyridazin-3-yl)pyrimidin-4-yl)piperidin-1-yl)ethan-1-one]	0.5 to 5 µM	10 to 1000 nM			
CC1CN(c2nccc(-c3cnc4cnc(Cl)cn34)n2)C(C)C(c2cn[nH]c2)N1 (single isomer, unassigned) [IV-408, 6-Chloro-3-(2-(2,5-dimethyl-3-(1H-pyrazol-4-yl)piperazin-1-yl)pyrimidin-4-yl)imidazo[1,2-a]pyrazine]			> 5 µM	100 to 1000 nM	
CN(C)S(=O)(=O)NCC1CCCN(c2cc(-c3cnc4ccc(C(F)F)nn34)ncn2)C1 (stereo not shown) [II-348, 3-((1-(6-(6-(Difluoromethyl)imidazo[1,2-b]pyridazin-3-yl)pyrimidin-4-yl)piperidin-3-yl)methyl)-1,1-dimethylsulfuric Diamide]	0.5 to 5 µM	10 to 1000 nM			
CNC(=O)C1CCCN(c2ccnc(-c3cnc4cnc(C(F)F)cn34)n2)C1 (stereo not shown) [IV-44, 1-(2-(6-(Difluoromethyl)imidazo[1,2-a]pyrazin-3-yl)pyrimidin-4-yl)-N-methylpiperidine-3-carboxamide]			> 5 µM	100 to 1000 nM	
CC1CC(N=S(C)(C)=O)CN(c2cc(-c3cnc4ccc(C(F)(F)F)nn34)ncn2)C1 (stereo not shown) [II-757, dimethyl((5-methyl-1-(6-(6-(trifluoromethyl)imidazo[1,2-b]pyridazin-3-yl)pyrimidin-4-yl)piperidin-3-yl)imino)-16-sulfanone]	< 0.5 µM				IC50 (GCN2 kinase; [2]): 10 to 1000 nM
C[C@@H]1C[C@H](c2c[nH]nc2F)CN(c2nccc(-c3cnc4cnc(C(F)(F)F)cn34)n2)C1 [IV-757, 3-(2-((3R,5R)-3-(3-fluoro-1H-pyrazol-4-yl)-5-methylpiperidin-1-yl)pyrimidin-4-yl)-6-(trifluoromethyl)imidazo[1,2-a]pyrazine]			< 0.5 µM		IC50 (GCN2 kinase; compounds of Formula IV, 4 nM GCN2 kinase): 10 to 1000 nM
CC1CN(c2ccnc(-c3cnc4cnc(C(F)(F)F)cn34)n2)C(C)C(c2cn[nH]c2)N1 (single isomer, unassigned) [IV-345, 3-(4-(2,5-Dimethyl-3-(1H-pyrazol-4-yl)piperazin-1-yl)pyrimidin-2-yl)-6-(trifluoromethyl)imidazo[1,2-a]pyrazine]			0.5 to 5 µM	10 to 100 nM	
Cc1n[nH]cc1C1=CCCN(c2ccnc(-c3cnc4cnc(C(F)F)cn34)n2)C1 [IV-96, 6-(Difluoromethyl)-3-(4-(5-(3-methyl-1H-pyrazol-4-yl)-3,6-dihydropyridin-1 (2H)-yl)pyrimidin-2-yl)imidazo[1,2-a]pyrazine]			0.5 to 5 µM	10 to 100 nM	
NC1CCCN(c2ccnc(-c3cnc4cnc(C(F)F)cn34)n2)CC1 (stereo not shown) [IV-118, 1-(2-(6-(Difluoromethyl)imidazo[1,2-a]pyrazin-3-yl)pyrimidin-4-yl)azepan-4-amine]			> 5 µM	100 to 1000 nM	
CS(=O)(=O)NC1CCCN(c2cc(-c3cnc4ccc(C(F)(F)F)nn34)ccn2)C1 (stereo not shown) [II-231, N-(1-(4-(6-(Trifluoromethyl)imidazo[1,2-b]pyridazin-3-yl)pyridin-2-yl)piperidin-3-yl)methanesulfonamide]	0.5 to 5 µM	10 to 1000 nM			
OCC1CC(c2cn[nH]c2)CN(c2ccnc(-c3cnc4cnc(C(F)(F)F)cn34)n2)C1 (stereo not shown) [IV-359, (5-(1H-Pyrazol-4-yl)-1-(2-(6-(trifluoromethyl)imidazo[1,2-a]pyrazin-3-yl)pyrimidin-4-yl)piperidin-3-yl)methanol]			< 0.5 µM	< 10 nM	
FC(F)(F)c1cn2c(-c3nccc(N4CCC(C5CCOC5)C4)n3)cnc2cn1 (stereo not shown) [IV-580, 3-(4-(3-(Tetrahydrofuran-3-yl)pyrrolidin-1-yl)pyrimidin-2-yl)-6-(trifluoromethyl)imidazo[1,2-a]pyrazine]			> 5 µM	10 to 100 nM	
CS(=O)(=O)NC1CCN(c2ccnc(-c3cnc4cnc(C(F)F)cn34)n2)C1 (stereo not shown) [IV-70, N-(1-(2-(6-(Difluoromethyl)imidazo[1,2-a]pyrazin-3-yl)pyrimidin-4-yl)pyrrolidin-3-yl)methanesulfonamide]			> 5 µM	100 to 1000 nM	
CCN1CCN(c2ccnc(-c3cnc4cnc(Br)cn34)n2)[C@@H](C)[C@H]1c1cn[nH]c1 (single isomer, unassigned) [IV-402, Cis-6-Bromo-3-(4-(4-ethyl-2-methyl-3-(1H-pyrazol-4-yl)piperazin-1-yl)pyrimidin-2-yl)imidazo[1,2-a]pyrazine]			< 0.5 µM	< 10 nM	
CC1(C)CN(c2ccnc(-c3cnc4cnc(Br)cn34)n2)CC(c2cn[nH]c2)N1 (stereo not shown) [IV-354, 6-Bromo-3-(4-(3,3-dimethyl-5-(1H-pyrazol-4-yl)piperazin-1-yl)pyrimidin-2-yl)imidazo[1,2-a]pyrazine]			> 5 µM	10 to 100 nM	
CC1CN(c2ccnc(-c3cnc4cnc(Br)cn34)n2)C(C)C(c2c[nH]cn2)N1 (single isomer, unassigned) [IV-377, 3-(4-(3-(1H-Imidazol-4-yl)-2,5-dimethylpiperazin-1-yl)pyrimidin-2-yl)-6-bromoimidazo[1,2-a]pyrazine]			0.5 to 5 µM	100 to 1000 nM	
CC(NS(C)(=O)=O)C1CN(c2ccnc(-c3cnc4cnc(C(F)F)cn34)n2)CCO1 (stereo not shown) [IV-62, N-(1-(4-(2-(6-(Difluoromethyl)imidazo[1,2-a]pyrazin-3-yl)pyrimidin-4-yl)morpholin-2-yl)ethyl)methanesulfonamide]			> 5 µM	100 to 1000 nM	
CS(=N)(=O)CCC1CCCN(c2cc(-c3cnc4ccc(C(F)F)nn34)ccn2)C1 (stereo not shown) [II-104, (2-(1-(4-(6-(Difluoromethyl)imidazo[1,2-b]pyridazin-3-yl)pyridin-2-yl)piperidin-3-yl)ethyl)(imino)(methyl)-λ^6-sulfanone]	> 5 µM	10 to 1000 nM			
NC(=O)C1COCCN(c2cc(-c3cnc4ccc(C(F)F)nn34)ncn2)C1 (stereo not shown) [II-210, 4-(6-(6-(Difluoromethyl)imidazo[1,2-b]pyridazin-3-yl)pyrimidin-4-yl)-1,4-oxazepane-6-carboxamide]	> 5 µM	10 to 1000 nM			
CNc1cc(-c2cnc3ccc(C(F)F)nn23)cc(N2CC(C)C(F)(F)C(CNS(C)(=O)=O)C2)n1 (stereo not shown) [II-64, N-((1-(4-(6-(Difluoromethyl)imidazo[1,2-b]pyridazin-3-yl)-6-(methylamino)pyridin-2-yl)-4,4-difluoro-5-methylpiperidin-3-yl)methyl)methanesulfonamide]	< 0.5 µM	< 10 nM			
C[C@H](NS(C)(=O)=O)[C@@H]1CN(c2cc(-c3cnc4ccc(C(F)F)nn34)ncn2)CCO1 (single isomer, unassigned) [II-509]	< 0.5 µM	< 10 nM			
NS(=O)(=O)N1CC2CCN(c3cc(-c4cnc5ccc(C(F)F)nn45)ncn3)C2C1 (stereo not shown) [II-286, 1-(6-(6-(Difluoromethyl)imidazo[1,2-b]pyridazin-3-yl)pyrimidin-4-yl)hexahydropyrrolo[3,4-b]pyrrole-5(1H)-sulfonamide]	> 5 µM	10 to 1000 nM			
